Test results from a melting point compilation (Tetko et al.; mined from patent text by program, amines drawn as free bases though some values may be those of a salt).

Row | melting point [°C] | Compound
1 | 245 to 246 | CCn1cc(C(N)=O)c(=O)c2ccc(-c3ccccn3)cc21
2 | 63 to 66 | COC(C(=Cc1ccc(Cl)cc1)n1cncn1)C(C)(C)C (configuration not stated)
3 | 149 to 151 | CN(C)C(=O)CC1(C)OCCc2c1[nH]c1ccccc21 (configuration not stated)
4 | 99 to 101 | O=S(=O)(Nc1cccc(CCOCc2ccc(-c3ccc(Cl)cc3)cc2F)c1)C(F)(F)F
5 | 120 to 122 | C[Si](C)(C)CCOCn1ccc(=O)[nH]c1=O
6 | 183 to 185 | CC1(C)C(=O)Oc2ccc3cc([N+](=O)[O-])c(Cn4cncn4)cc3c21
7 | 98 | O=c1[nH]cnc2c1ncn2[C@@H]1CO[C@H](CO)C1
8 | 132 | CC1(C)C=C(c2ccccn2)c2ccc(C#N)cc2OC1
9 | 97 to 98 | O=C(OCc1ccccc1)c1ccc2cc(OCc3ccccc3)ccc2c1
10 | 138 to 139 | CCCNC(=O)c1ccc(/C=C(\C)c2ccc3c(c2)C(C)(C)CCO3)cc1
11 | 191 to 192 | CC(C)Cn1c(CO)c(-c2ccccc2F)c2cc(OCc3ccccc3)ccc2c1=O
12 | 176 | Oc1ccc(C2OCN3C2=CCC3CCc2ccccc2)cc1 (configuration not stated)
13 | 210 to 212 | CC(C)(C)OC(=O)N1CC=C(c2c[nH]c3ccc([N+](=O)[O-])cc23)CC1
14 | 167 to 170 | CCOc1cc2c(cc1OC)C(c1ccc(-c3nnn(CC)n3)cc1)=N[C@H]1CCCC[C@@H]21 (racemic)
15 | 114 to 116 | CCOC(=O)c1ccc(NC(C)=O)c(CC(O)CO)c1 (configuration not stated)
16 | 131 | CC(=O)CCN1CCC(Nc2nc3ccccc3n2Cc2ccc(F)cc2)CC1
17 | 127 to 137 | CC(C)c1ccc(C(=O)C(c2ccccc2)C2CCCCC2)c(C(C)C)c1OS(N)(=O)=O (configuration not stated)
18 | 78 to 80 | CCOC(=O)C(=CNC1CC1)C(=O)c1cc(F)c(F)c(Cl)c1F
19 | 68 to 69 | CCOP(=O)(Cc1nc(Cl)cc(N2CCCC2)n1)OCC
20 | 124 to 126 | c1ccc([C@@]23O[C@@H]2CCc2ccccc23)cc1
21 | 55.4 | Cn1c(C(F)(F)F)cc(=O)n(-c2cc(Oc3ccccc3O)c(Cl)cc2F)c1=O
22 | > 300 | CCN(c1c(Cl)c(C(F)(F)F)cc2[nH]c(=O)c(=O)[nH]c12)S(C)(=O)=O
23 | 268 to 270 | Nc1cc(C(=O)NNC(=O)c2occ(-c3ccccc3)c2-c2ccccc2)ccc1O
24 | 88 to 89 | O=C(CCCCCc1ccc(Cl)cc1)N1CCN(c2cnccn2)CC1
25 | 109 to 110 | CN(C)C(=O)C1(CCC#N)c2ccccc2-c2ccccc21

Row | melting point [°C] | Compound
26 | 141 to 143 | CC1CCCN(c2nc(-n3cncn3)nc(Cl)c2-c2c(F)cc(F)cc2F)O1 (configuration not stated)
27 | 165 | CC(CC(=O)c1ccc2c(c1)C(C)(C)CCC2(C)C)C(=O)O (configuration not stated)
28 | 108 to 116 | Cc1nc2c(-c3cccc(N4CCN(CCO)CC4)c3)cnn2c(N)c1-c1cccc(Cl)c1
29 | 141 to 142 | CN(C)C=Nc1ccc(-c2c[nH]cn2)cc1
30 | 186 to 188 | Cc1cn(-c2cc(NC(=O)OC(C)(C)C)cc(C(F)(F)F)c2)cn1
31 | 89 to 89.5 | CCN(CC)C(=O)COC(=O)C(C)c1ccc2cc(OC)ccc2c1 (configuration not stated)
32 | 137 to 139 | Cc1ccc2c(c1)NC(NC(C)C)=NS2(=O)=O
33 | 184 to 186 | CN1Cc2ccccc2C(=O)c2cc(CC(=O)O)cc([N+](=O)[O-])c21
34 | 104 to 110 | Cc1ncccc1C(C#N)N1CCN(C(=O)CC(NC(=O)c2ccc(OCc3ccc4ccccc4n3)cc2)c2ccccc2)CC1 (configuration not stated)
35 | 200 | CC(C)Nc1cccnc1N1CCN(C(=O)c2cc3cc(NC(=O)N4CCN(C)CC4)ccc3[nH]2)CC1
36 | 139 to 141 | COc1ccc(C(=CC#N)c2ccc(OC)c(OC)c2)cc1NC(C)=O
37 | 43 to 46 | COC(=O)c1cc(Br)ncc1F
38 | 145 | CCCCN1C(=O)NC(C(C)O)C1=O (configuration not stated)
39 | 135 to 139 | CCOC(=O)c1c(CCc2ccc(OC)cc2)oc2ccc(C#N)cc12
40 | 223 to 225 | O=C(c1cc2c(Br)cccc2o1)c1cc2c(Br)cccc2o1
41 | 39 to 40 | CCCCCCCCCN(O)C(=O)N(C)C
42 | 64.7 to 67.9 | CSc1cc(C(=O)C(C#N)C(=O)C2CC2)ccc1C (configuration not stated)
43 | 110 to 112 | COc1cc(C(CCN(C)C)C(N)=O)cc(OC)c1OC (configuration not stated)
44 | 211 to 215 | NS(=O)(=O)c1ccc(NN=C2C(=O)Nc3ccc(C(=O)NCc4cccnc4)cc32)cc1
45 | 280 to 281 | CC(=O)C1C(C(=O)c2ccc(Cl)cc2)CC2C3CCC4=CC(=O)CCC4(C)C3(F)C(O)CC21C (configuration not stated)
46 | 163 to 165 | O=C1OCC(CC(F)(F)F)N1c1nc(-c2ccc(Br)cc2)cs1 (configuration not stated)
47 | 98 to 100 | CC(=O)c1c(-c2ccsc2)sc(-c2ccncc2)c1C
48 | 261 to 262 | COc1cc2c(cc1OC)-c1ncc(C#N)c(=O)n1CC2
49 | 105 to 107 | CC(C)(C)OC(=O)NC[C@H]1CC[C@H](COS(C)(=O)=O)CC1
50 | 188 to 190 | O=Cc1ccc2c(c1)S(=O)c1ccccc1C=C2 (configuration not stated)

Row | melting point [°C] | Compound
51 | 124 to 125 | COC(=O)c1oc2c(sc3ccccc32)c1O
52 | 227 to 228 | CCc1c(C)nc2n1N=C(c1ccc(N)cc1)c1cc3c(cc1C2)OCO3
53 | 68 to 71 | COC(=O)c1c(C(F)(F)C(F)(F)F)[nH]c(C(F)(F)C(F)(F)F)c1C(=O)OC
54 | 170 to 172 | CC(=O)Nc1cc(C(C)(C)C)cc(OCc2ccccc2)c1C
55 | 144 to 145 | O=C(O)C(=O)c1ccc(OCCOc2ccc3ccccc3c2)cc1
56 | 188 to 191 | CN1CCCCC(c2cccc(O)c2)C1=O (configuration not stated)
57 | 135 to 137 | O=C(O)CCC(CCC(=O)O)(CCC(=O)O)C(=O)c1ccc(Cl)cc1
58 | 166 to 168 | O=C(c1c(F)cccc1F)N1CN(c2ccccc2)CN(c2ccc(Cl)cc2)C1=O
59 | 223 | CNC(=O)CCCC1CCN(Cc2cnc3cc(NC(=O)c4ccc(-c5ccc(F)cc5)cc4)c(C)cc3c2)CC1
60 | 278 to 280 | N#Cc1ccc(-c2csc(Nc3ccccc3O)n2)cc1
61 | 150 to 154 | CCCc1cc(C(=O)O)n(C)n1
62 | 90 to 96 | COc1ccc(Oc2c(Cl)cc(-n3ncc(=O)[nH]c3=O)cc2Cl)cc1NS(=O)(=O)c1ccc(F)cc1
63 | 143 | COc1ccc(CNc2nc(CCCC(=O)O)nc3[nH]c4ccccc4c23)cc1Cl
64 | 160 to 165 | Clc1ccc2c(C3CCN(CCCOc4cccc5[nH]ccc45)CC3)c[nH]c2c1Cl
65 | 81 to 83 | C[C@@H]1CN(Cc2ccccc2)C[C@H]1C(=O)NC1CC1 (relative stereo)
66 | 123 to 124 | CC(C)(C)c1cc(I)c2c(c1)CNC1(CCSCC1)O2
67 | > 300 | Cc1cc(=O)[nH]nc1-c1ccc2c(c1)C(C)CC(=O)N2 (configuration not stated)
68 | 241 to 243 | CC(C)(C)c1cc(Nc2ccc(C(=O)O)cc2)cc(C(C)(C)C)c1O
69 | 76 to 77 | COC(=O)c1cc(Cl)c(Cl)c(-c2cc(C)no2)c1C
70 | 104 to 108 | CC(C)(Oc1ccc(Cl)cc1Cl)C(=O)C(Cc1ccc(Cl)cc1)n1cncn1 (configuration not stated)
71 | 83.5 to 85 | COC(=O)C(C)(SC)c1ccc(N2CCCCC2)c(Cl)c1 (configuration not stated)
72 | 209 | CC(C)c1[nH]n(-c2c(Cl)cncc2Cl)c2nc(Cc3ccc(CN4CCCC4)c(O)c3)nc(=O)c1-2
73 | > 260 | COc1cc2c(cc1OC)-c1[nH]c3ccc(O)cc3c1C2=O
74 | 210 to 212 | CNC(=O)c1cc(C)ccc1Nc1nc(Nc2ccc3c(c2)CCN(CCOC)CC3)ncc1Cl
75 | 194 to 195 | CC(C)CN1CCC(N(C)S(=O)(=O)c2ccc(Nc3nccc(Nc4ccc(F)cc4)n3)cc2)CC1

Row | melting point [°C] | Compound
76 | 176 to 178 | CCc1sc2ccc(C)cc2c1S(=O)(=O)Nc1onc(C)c1Br
77 | > 300 | Cn1nc2c(cc1=O)CCc1cc(O)ccc1-2
78 | 114 to 115 | CC=Cn1c(C)c(C)c2cnnc(OCc3ccc(F)cc3)c21
79 | 57 | CN1CCN(CCOc2cccc3c2c2cccc4c2n3C(c2ccccc2)CO4)CC1 (configuration not stated)
80 | 49 to 50 | Cc1cccc(CCCCCCCCC(=O)NO)c1
81 | 249 to 251 | O=C1NC(=O)C2(CCCCC2)N1c1ccc(I)cc1
82 | 110 to 113 | COc1ncc(Cl)cc1C(O)C(N)=O (configuration not stated)
83 | 132 | NC(=O)c1ccc(F)c2c1OCC(N(CCCc1c[nH]c3ccc(F)cc13)C1CCC1)C2 (configuration not stated)
84 | 136 to 138 | CON(C(=O)C1=C(O)C(=O)N(C)C1)C(C)c1ccc(F)cc1 (configuration not stated)
85 | 107 to 108 | CCOC(=O)C(=CNC1CC1)C(=O)c1c(F)cc(F)c(F)c1F
86 | 200 to 202 | Cc1ccc(C(=O)Nc2cccc(C(F)(F)F)c2)cc1-c1ccc2scnc2c1
87 | 188 to 190 | COc1ccc(Cl)cc1C(=O)Nc1ccc(CCC(=O)O)cc1
88 | 229 to 230 | CN(C(=O)c1ccc(Cn2cnc3ncnc-3c2)cc1)C1CCCCC1
89 | 225 to 227 | O=C(O)c1ccc(NCc2cc(Cl)c(Cl)s2)cc1
90 | 69 | CCOC(=O)C1C(C#N)C1(C)C (configuration not stated)
91 | 239 to 241 | O=c1c2cc(F)c(N3CCCC3)cc2n(-c2cccc(F)c2)c(=O)n1O
92 | 168 to 170 | Cn1nc(-c2ccncc2)nc1-c1ccncc1
93 | 83 to 85 | FC(F)(F)c1ccc(-c2ccc3ccn(Cc4ccccc4)c3c2)cc1
94 | 167 to 168 | COc1ccc(Cn2cccc2C(=O)CC(=O)C(=O)O)cc1
95 | 154 to 155 | COCCNC(=O)c1ccnc(-c2ccc3c(c2)C(c2ccc(Cl)cc2Cl)CC3)c1 (configuration not stated)
96 | 92 to 95 | CC(=O)c1cc(Br)c(N)c(CN(C)C)c1
97 | 222 to 224 | CSc1nc(N)c2ncn(C3CCCCC3)c2n1

Row | Compound | melting point [°C]
98 | CCCCCCC(C)(C)c1cc(O)c2c(c1)OCCC1=C2CC(C)CC1 (configuration not stated) | 134 to 136
99 | CC(C)(C)[C@H]1N(c2ccc(C#N)c3ccccc23)C(=O)[C@@H]2C[C@@H](O)CN21 | 155 to 157
100 | CN(C)Cc1ccc(Cc2cnc(N[N+](=O)[O-])[nH]c2=O)cc1 | 214 to 217
101 | O=c1[nH]c(C2CCNCC2)nc2ccccc12 | 244 to 245
102 | CCC(=O)OC1CCC2C3CCC4=CC(=O)CCC4(C=O)C3CCC12C (configuration not stated) | 119 to 121
